Consider one compound from patent US20220315572A1, “SUBSTITUTED CYANOPYRROLIDINES WITH ACTIVITY AS USP30 INHIBITORS” (MISSION THERAPEUTICS LIMITED, priority 2019, published 2022).

The nature of one data set: FaSSIF solubility. Particulars: simulated intestinal fluid, fasted state. Format: physicochemical. The text has this: FaSSIF: simulated intestinal fluid in fasted state measured at pH 6.5.
Data set [1] deals with Eurofins CEREP SafetyScreen44 panel. Briefly: Eurofins CEREP SafetyScreen44 panel. The format is binding. The following applies: single concentration of 10 μM, all targets in the panel. From the text:
Aside from selectivity over other DUB enzymes, it is important for a drug to have low affinity for other targets, and pharmacological profiling may be performed against panels of targets to assess the potential for, and to minimise, potential off-target effects. Examples of targets for which the compounds of the present invention may be screened against are those of the industry standard Eurofins-Cerep SafetyScreen44 panel, which includes 44 targets as a representative selection of GPCR receptors, transporters, ion channels, nuclear receptors, and kinase and non-kinase enzymes. Preferably, compounds of the invention have insignificant affinity against targets of this screening panel. Further examples of targets for which the compounds of the present invention may be screened against are kinases of the Thermo Fisher SelectScreen kinase profiling panel, which includes 39 targets as a representative selection of kinase enzymes. Preferably, compounds of the invention have insignificant affinity against targets of this screening panel. Additionally, examples of a particular enzyme class for which the compounds of the present invention may be screened against are the cathepsins (e.g. cathepsin A, B, C, H, K, L, S, V and Z). Preferably, compounds of the invention have good selectivity for USP30 over one or more of these enzymes. […]

The nature of data set [2]: Plasma free fraction, equilibrium dialysis. The following applies: mouse plasma; read-out: Binding Mouse Plasma fu, p. The format is in vitro ADME. From the text:
Plasma fu,p: The free fraction of a compound in plasma preparation determined by in vitro equilibrium dialysis. It is understood that only unbound (free) compound is capable of engaging with the target.

The target in another data set is T1, USP30 (Mus musculus, UniProt Q3UN04).
T1 construct: brain or kidney tissue samples from compound-dosed animals; from tissue; host or cells: kidney
T1 sequence (Q3UN04 1-517): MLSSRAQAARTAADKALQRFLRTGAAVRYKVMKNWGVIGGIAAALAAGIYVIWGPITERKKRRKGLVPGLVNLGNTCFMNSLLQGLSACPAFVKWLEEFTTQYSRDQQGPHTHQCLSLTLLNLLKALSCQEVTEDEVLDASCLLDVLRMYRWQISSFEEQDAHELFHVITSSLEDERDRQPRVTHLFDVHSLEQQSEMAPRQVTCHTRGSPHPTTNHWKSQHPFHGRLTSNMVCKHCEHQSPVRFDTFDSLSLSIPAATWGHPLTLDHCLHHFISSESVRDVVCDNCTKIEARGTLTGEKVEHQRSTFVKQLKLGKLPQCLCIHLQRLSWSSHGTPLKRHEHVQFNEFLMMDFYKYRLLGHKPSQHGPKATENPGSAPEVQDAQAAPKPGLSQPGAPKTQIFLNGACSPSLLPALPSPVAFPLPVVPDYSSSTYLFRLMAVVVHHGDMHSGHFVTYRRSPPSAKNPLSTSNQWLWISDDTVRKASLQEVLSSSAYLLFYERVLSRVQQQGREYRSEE
Briefly: USP30 kidney tissue target engagement assay (TE ex vivo). Format: in vivo. Particulars: Mouse kidney 10 mg/kg PO. How it is done: 50 to 100 mg of tissue was homogenised in 3× volume of lysis buffer (50 mM Tris, pH 7.5, 50 mM NaCl, 0.1% NP-40/Igepal CA-630, 0.5% CHAPS, 2 mM MgCl2, 5 mM beta-mercaptoethanol, cOmplete mini tablets EDTA free (Roche), PhosStop tablets (Roche)) using a Retch Mixer Mill (MM400). Lysate containing 60 μg protein was incubated with a final conc of 6 μM of HA-Ahx-Ahx-Ub-VME probe for 15 mins at room temperature. The reaction was stopped by addition of 5×SDS sample loading buffer and proteins separated by SDS-PAGE and western blotting. USP30 was detected using an anti-USP30 Sheep S746D antibody (MRC PPU Reagents and Services) and a rabbit anti sheep secondary IgG (H+L) horseradish peroxidase conjugated (Thermo #31480) and visualised using ECL reagent (GE #RPN2109) on a GE LAS4000 imager. Target engagement was measured by quantitation of the bands corresponding to USP30 and USP30 bound to the Ub-VME probe and expression of this proportion compared to vehicle treated control.
TE ex vivo: USP30 kidney tissue target engagement assay.

The nature of another data set: Mouse plasma stability. The following applies: read-out: Stability Mouse plasma t1/2. Format: in vitro ADME. From the text:
Other parameters that may be measured using standard assays that are indicative of a compound's exposure profile include, for example plasma stability (half-life measurement), blood AUC, Cmax, Cmin and Tmax values.

Data set [3] deals with P-glycoprotein (MDR1), human. Kind of data set: MDR1-MDCK flux assay. Particulars: dog. Format: in vitro ADME, Canine. From the text:
The treatment of CNS disorders, including Alzheimer's disease, Parkinson's disease, and other disorders described herein, requires drug molecules to target the brain, which requires adequate penetration of the blood brain barrier. […] The probability that a compound can cross the blood brain barrier may be measured by an in vitro flux assay utilizing a MDR1-MDCK cell monolayer (Madin-Darby Canine Kidney cells transfected with MDR-1 resulting in overexpression of the human efflux transporter P-glycoprotein). Additionally, exposure may also be measured directly in brain and plasma using in vivo animal models.
MDR1-MDCK (Madin-Darby Canine Kidney cell monolayer) (in vitro) flux assay.

The test system of a further data set is TK6 cells. Kind of data set: In vitro micronucleus assay. The format is cell-based. Particulars: 27 hours recovery. The method, then: The micronucleus assay may be used to determine if a compound is genotoxic by evaluating the presence of micronuclei. Micronuclei may contain chromosome fragments produced from DNA breakage (clastogens) or whole chromosomes produced by disruption of the mitotic apparatus (aneugens).
Example 1 was assessed in the bacterial reverse mutation assay (Ames) and in vitro micronucleus assay. All in vitro tests were conducted with and without exogenous metabolic activation using concentrations up to those limited by cytotoxicity or insolubility.
Induction of chromosome damage was assessed using the in vitro micronucleus assay in TK6 cells. Example 1 was negative for induction of micronuclei when incubated for 3 hours in the presence of exogenous metabolic activation followed by 27 hours recovery, and also when incubated for 27 hours in the absence of exogenous metabolic activation followed by 27 hours recovery.

As to `C[C@@H]1C[C@@H](NC(=O)c2nnc(-c3cccc(C#N)c3)o2)CN1C#N` [Example 1, N-((3R,5R)-1-Cyano-5-methylpyrrolidin-3-yl)-5-(3-cyanophenyl)-1,3,4-oxadiazole-2-carboxamide], in “FaSSIF solubility”, the “FaSSIF (μM) measured at pH 6.5” value was 415 μM. For the same compound, in data set [1], the “inhibition of binding or enzyme activity” value was “less than 25%”. In addition, the fraction unbound in data set [2] came out at 0.54. Also, the “TE ex vivo TE % occupancy” value at USP30 (1 h post-dose) stood at 94%; on USP30 (4 h post-dose), 89%; on USP30 (8 h post-dose), 79%; at USP30 (12 h post-dose), 8%. For the same compound, the half-life in “Mouse plasma stability” is > 33.3 h. Further, the efflux ratio in data set [3] is 81. This compound also displayed a Papp A→B in data set [3] (A-B) of 0.9 ×10⁻⁶ cm/s. Also, the induction of micronuclei entry in the data set with TK6 cells (3 hours in the presence of exogenous metabolic activation) and with TK6 cells (27 hours in the absence of exogenous metabolic activation) was “negative” in each case.

Broadly, the efflux ratio is a quotient of directional permeabilities that is used to spot active efflux. The term Papp A→B denotes how fast a substance crosses the layer from the apical side. A lower Papp A→B goes with poor permeation.
